Experimental data as given in patent publication US11253497B2, “Use of derivatives of polyunsaturated fatty acids as medicaments” (Lipopharma Therapeutics, S.L., priority 2009, dated 2022).

How the values were obtained:
Conditions in all cases: 72 hours of incubation
[1] = tested on: lung cancer cells A549; experiment: Growth of lung cancer cells A549 (IC50); type: cell-based, human
Protocol: (§1) For the experiments shown in FIG. 1, cultured human Non Small Cell Lung Cancer cells (A549) in RPMI 1640 were used, supplemented with 10% foetal bovine serum and antibiotics, at 37° C. and 5% CO2. […] After treatment, cell count was performed and the study of the mechanisms involved in the antitumor activity of compounds was evaluated by flow cytometry. […] These values correspond to averages of three independent experiments.
(§2) These charts show the antitumor efficacy of the compounds of this invention against the growth of breast cancer cells, brain (glioma), and lung cancer. […] The other experimental conditions are identical to those described in the preceding paragraph.

[2] = tested on: breast cancer cells MDA-MB-231; experiment: Growth of breast cancer cells MDA-MB-231; type: cell-based
Protocol: as §1, §2

[3] = tested on: brain cancer cell (glioma) U118; experiment: Brain cancer (glioma) U118 cell growth; type: cell-based
Protocol: For the experiments shown in FIG. 1, cultured human Non Small Cell Lung Cancer cells (A549) in RPMI 1640 were used, supplemented with 10% foetal bovine serum and antibiotics, at 37° C. and 5% CO2. Cells were maintained in culture for 48 hours in the presence or absence of D-PUFAs and PUFAs indicated in Table 2 at a concentration of 250 µM. After treatment, cell count was performed and the study of the mechanisms involved in the antitumor activity of compounds was evaluated by flow cytometry. […] These values correspond to averages of three independent experiments.
as §2

Row | IC50 [1] [µM] | IC50 [2] [µM] | IC50 [3] [µM] | Compound
1 | 462 | 402 | 267 | CCCCCC=CCC=CCCCCCCC(OC)C(=O)OC (stereo not drawn) [182H1]
2 | 673 | 411 | 240 | CCCCCC=CCC=CCCCCCCC(OC)C(=O)OCC (stereo not drawn) [182I1]
3 | 286 | 362 | 238 | CCCCCC=CCC=CCCCCCCC(C)C(=O)OC (stereo not drawn) [182M1]
4 | 293 | 328 | – | CCCCCC=CCC=CCCCCCCC(CO)C(=O)OCC (stereo not drawn) [182Q1]
5 | 379 | 391 | 214 | CCCCCC=CCC=CCCCCCCC(F)C(=O)OCC (stereo not drawn) [182T1]
6 | 255 | 410 | 212 | CCCCCC=CCC=CCCCCCCC(OC=O)C(=O)OC (stereo not drawn) [182U1]
7 | 416 | 391 | 246 | CCCCCC=CCC=CCCCCCCC(C(=O)OCC)N(OCC)OCC (stereo not drawn) [182W1]
8 | 319 | 308 | 408 | CCC=CCC=CCC=CCCCCCCC(OC)C(=O)OC (stereo not drawn) [183H1]
9 | 219 | 170 | 443 | CCCCCC=CCC=CCC=CCCCC(OC)C(=O)OC (stereo not drawn) [183H2]
10 | 348 | 274 | 321 | CCC=CCC=CCC=CCCCCCCC(OC)C(=O)OCC (stereo not drawn) [183I1]
11 | 276 | 210 | 432 | CCCCCC=CCC=CCC=CCCCC(OC)C(=O)OCC (stereo not drawn) [183I2]
12 | 322 | 407 | 349 | CCC=CCC=CCC=CCCCCCCC(C)C(=O)OC (stereo not drawn) [183M1]
13 | 248 | 164 | 407 | CCCCCC=CCC=CCC=CCCCC(C)C(=O)OC (stereo not drawn) [183M2]
14 | 273 | 312 | 282 | CCC=CCC=CCC=CCCCCCCC(CO)C(=O)OCC (stereo not drawn) [183Q1]
15 | 314 | 205 | 392 | CCCCCC=CCC=CCC=CCCCC(CO)C(=O)OCC (stereo not drawn) [183Q2]
16 | 367 | 290 | 368 | CCC=CCC=CCC=CCCCCCCC(F)C(=O)OCC (stereo not drawn) [183T1]
17 | 279 | 216 | 423 | CCCCCC=CCC=CCC=CCCCC(F)C(=O)OCC (stereo not drawn) [183T2]
18 | 294 | 344 | 343 | CCC=CCC=CCC=CCCCCCCC(OC=O)C(=O)OC (stereo not drawn) [183U1]
19 | 287 | 228 | 380 | CCCCCC=CCC=CCC=CCCCC(OC=O)C(=O)OC (stereo not drawn) [183U2]
20 | 352 | 311 | – | CCC=CCC=CCC=CCCCCCCC(C(=O)OCC)N(OCC)OCC (stereo not drawn) [183W1]
21 | 212 | 203 | 438 | CCCCCC=CCC=CCC=CCCCC(C(=O)OCC)N(OCC)OCC (stereo not drawn) [183W2]
22 | 398 | 363 | 263 | CCCCCC=CCC=CCC=CCC=CCCC(OC)C(=O)OC (stereo not drawn) [204H1]
23 | 459 | 315 | 328 | CCCCCC=CCC=CCC=CCC=CCCC(OC)C(=O)OCC (stereo not drawn) [204I1]
24 | 362 | 285 | 296 | CCCCCC=CCC=CCC=CCC=CCCC(OC(C)=O)C(=O)OC (stereo not drawn) [204J1]
25 | 375 | 321 | 309 | CCCCCC=CCC=CCC=CCC=CCCC(C)C(=O)OC (stereo not drawn) [204M1]
26 | 348 | 306 | 324 | CCCCCC=CCC=CCC=CCC=CCCC(CO)C(=O)OCC (stereo not drawn) [204Q1]
27 | 352 | 317 | 385 | CCCCCC=CCC=CCC=CCC=CCCC(F)C(=O)OCC (stereo not drawn) [204T1]

Row | Compound | IC50 [1] [µM] | IC50 [2] [µM] | IC50 [3] [µM]
28 | CCCCCC=CCC=CCCCCCCC(O)C(=O)O (stereo not drawn) [182C1] | 635 | 386 | 208
29 | CCC=CCC=CCC=CCCCCCCC(O)C(=O)O (stereo not drawn) [183C1] | 281 | 289 | –
30 | CCCCCC=CCC=CCC=CCCCC(O)C(=O)O (stereo not drawn) [183C2] | 241 | 168 | 379
31 | CCCCCC=CCC=CCC=CCC=CCCC(O)C(=O)O (stereo not drawn) [204C1] | 521 | 389 | 287
